Source: patent publication US11730405B2, “Body fluid leakage detection aqueous composition” (MAGLE CHEMOSWED HOLDING AB, priority 2017, dated 2023)
Where “and” joins values, the source holds several entries; their conditions need not be identical. Equal values may be shown once. Read-outs that look alike come from different tables or passages of the source.

How the values were obtained:
[1] = Pharmacokinetics of BTB in drainage fluid and portal venous blood after abdominal application of PAN indicator hydrogel (HPLC-MS); assay type: in vivo, domestic pigs (Sus Scrofa Domestica); conditions: for concentration at 1 day / concentration at 2 day / concentration at 0 min / concentration at 1 min / concentration at 5 min / concentration at 30 min / concentration at 60 min / concentration at 120 min: pig, other: abdominal application at the pancreatic surgery field; for concentration at 5 min: Min 5, mean of animals; for concentration at 30 min: Min 30, mean of animals
Method: (§1) PAN toxicology was evaluated by analyzing in vivo pharmacokinetics of its degradation products over 48 hours. Additionally, acute local tissue injury caused by the indicator within minutes as well as macroscopic intra-abdominal side effects and local histological of the device over 8 days were assessed. Finally, cytotoxicity of its degradation products on pancreatic target cells was analyzed.
For toxicological evaluation of PAN indicator hydrogel pharmacokinetics studies were conducted measuring concentrations of degradation products of the device in body fluid components over time consequently to abdominal application in pancreatic surgery. Blood from portal vein and peritoneal fluid from intraoperative situs or postoperative drainages were sampled. Time points of sampling in relation to indicator application were: 0 min (baseline before indicator application), 1, 5, 30, 60, and 120 min, 1st and 2nd postoperative day. Due to its composition with water and degradable components starch microspheres, only further constituent bromothymol blue (BTB) needed to be evaluated. It should be evaluated if and how much BTB stays in the organism after application at the pancreatic surgery field, gets resorbed to portal venous circulation and passes liver metabolism to reach central venous circulation. Thus, samples of body were collected at the different body compartments over time as described above. Due to expected extremely small BTB-amounts to be measured the very sensitive detection method High Pressure Liquid Chromatography-Mass Spectrometry (HPLC-MS) was used.

pancreatic target cells = experiment: Cytotoxicity cell culture assay (resazurin to resofurin fluorescence photometry); assay type: cell-based
Method: as §1
Cytotoxicity by PAN was further evaluated in a cell culture assay. Metabolic activity of viable cells was evaluated by fluorescence photometry of metabolized resofurin from resazurin after incubation with increasing amount of BTB. PAN indicator hydrogels contain BTB at a concentration of almost 0.5 mg/ml. Thus BTB-solutions with concentrations of 0.5 mg/ml, 1 mg/ml, 1.5 mg/ml, and 5.5 mg/ml, respectively were tested. Cytotoxicity is defined as cell viability less than 70%.

[2] = cited from earlier work
[3] = drainage fluid (peritoneal fluid), pig drainage fluid, read-out: Drainage BTB-Concentration, Mean
[4] = portal venous blood, pig portal venous blood, read-out: Portal Venous Blood BTB-Concentration, Mean

Question: Which “Drainage BTB-Concentration” value ([1]; pig drainage fluid, Day 1 (1st postoperative day), individual animals Tox 1-4) does the source give for `Cc1c(C2(c3cc(C(C)C)c(O)c(Br)c3C)OS(=O)(=O)c3ccccc32)cc(C(C)C)c(O)c1Br` [BTB, bromothymol blue] here?
Answer: Its value is < 20 ng/mL and 32.1 ng/mL and 18.9 ng/mL and 14.4 ng/mL and 2.98 ng/mL.

Question: What about the “Drainage BTB-Concentration” value ([1]; pig drainage fluid, Day 2 (2nd postoperative day), individual animals Tox 1-4) of the same compound?
Answer: Its value is “no detectable amount and 0 ng/ml”.

Question: What about the “Drainage BTB-Concentration” value ([1]; pig drainage fluid, Min 0 (baseline before indicator application), individual animals Tox 1-4) of the same compound?
Answer: The value was 0 ng/ml (3×) and 7.44 ng/ml.

Question: What about the “Drainage BTB-Concentration” value ([1]; pig drainage fluid, Min 1 after indicator application, individual animals Tox 1-4) of the same compound?
Answer: The value was 2060 ng/mL and 9220 ng/mL and 3600 ng/mL and 2010 ng/mL.

Question: And the “Drainage BTB-Concentration” value ([1]; pig drainage fluid, Min 5, individual animals Tox 1-4)?
Answer: Its value is 7650 ng/mL and 389 ng/mL and 2560 ng/mL and 2070 ng/mL.

Question: What about the “Drainage BTB-Concentration” value ([1]; pig drainage fluid, Min 30, individual animals Tox 1-4) of the same compound?
Answer: The value was 3280 ng/mL and 10.7 ng/mL and 1220 ng/mL and 712 ng/mL.

Question: What about the “Drainage BTB-Concentration” value ([1]; pig drainage fluid, Min 60, individual animals Tox 1-4) of the same compound?
Answer: The value was 1140 ng/mL and 9.27 ng/mL and 1270 ng/mL and 224 ng/mL.

Question: And the “Drainage BTB-Concentration” value ([1]; pig drainage fluid, Min 120, individual animals Tox 1-4)?
Answer: Its value is 619 ng/mL and 263 ng/mL and 631 ng/mL and 121 ng/mL.

Question: What about the “Portal Venous Blood BTB-Concentration” value ([1]; pig portal venous blood, Day 1, individual animals Tox 1-4) of the same compound?
Answer: The value was 0 ng/mL.

Question: And the “Portal Venous Blood BTB-Concentration” value ([1]; pig portal venous blood, Day 2, individual animals Tox 1-4)?
Answer: The value was 0 ng/mL.

Question: And the “Portal Venous Blood BTB-Concentration” value ([1]; pig portal venous blood, Min 0 (baseline before indicator application), individual animals Tox 1-4)?
Answer: The value was 0 ng/mL.

Question: What about the “Portal Venous Blood BTB-Concentration” value ([1]; pig portal venous blood, Min 1, individual animals Tox 1-4) of the same compound?
Answer: Its value is 0 ng/mL.

Question: And the “Portal Venous Blood BTB-Concentration” value ([1]; pig portal venous blood, Min 5, individual animals Tox 1-4)?
Answer: The value was 0 ng/ml (3×) and 2.02 ng/ml.

Question: And the “Portal Venous Blood BTB-Concentration” value ([1]; pig portal venous blood, Min 30, individual animals Tox 1-4)?
Answer: Its value is 0 ng/ml (3×) and 2.11 ng/ml.

Question: What about the “Portal Venous Blood BTB-Concentration” value ([1]; pig portal venous blood, Min 60, individual animals Tox 1-4) of the same compound?
Answer: Its value is 0 ng/mL.

Question: What about the “Portal Venous Blood BTB-Concentration” value ([1]; pig portal venous blood, Min 120, individual animals Tox 1-4) of the same compound?
Answer: The value was 0 ng/mL.

Question: What about the concentration at 1 day ([1]; drainage fluid (peritoneal fluid), pig drainage fluid, Day 1, mean of animals, read-out: Drainage BTB-Concentration, Mean) of the same compound?
Answer: Its concentration at 1 day is 17.1 ng/mL.

Question: What about the concentration at 2 day ([1]; drainage fluid (peritoneal fluid), pig drainage fluid, Day 2 (2nd postoperative day), individual animals Tox 1-4, read-out: Drainage BTB-Concentration) of the same compound?
Answer: The concentration at 2 day was 0 ng/mL.

Question: What about the concentration at 2 day ([1]; drainage fluid (peritoneal fluid), pig drainage fluid, Day 2, mean of animals, read-out: Drainage BTB-Concentration, Mean) of the same compound?
Answer: Its concentration at 2 day is 0 ng/mL.

Question: And the concentration at 0 min ([1]; drainage fluid (peritoneal fluid), pig drainage fluid, Min 0 (baseline before indicator application), mean of animals, read-out: Drainage BTB-Concentration, Mean)?
Answer: Its concentration at 0 min is 1.9 ng/mL.

Question: What about the concentration at 1 min ([1]; drainage fluid (peritoneal fluid), pig drainage fluid, Min 1, mean of animals, read-out: Drainage BTB-Concentration, Mean) of the same compound?
Answer: Its concentration at 1 min is 4220 ng/mL.

Question: And the concentration at 5 min [1, 3]?
Answer: Its concentration at 5 min is 3170 ng/mL.

Question: What about the concentration at 30 min [1, 3] of the same compound?
Answer: The concentration at 30 min was 1310 ng/mL.

Question: What about the concentration at 60 min ([1]; drainage fluid (peritoneal fluid), pig drainage fluid, Min 60, mean of animals, read-out: Drainage BTB-Concentration, Mean) of the same compound?
Answer: Its concentration at 60 min is 661 ng/mL.

Question: And the concentration at 120 min ([1]; drainage fluid (peritoneal fluid), pig drainage fluid, Min 120, mean of animals, read-out: Drainage BTB-Concentration, Mean)?
Answer: Its concentration at 120 min is 408 ng/mL.

Question: And the concentration at 1 day ([1]; portal venous blood, pig portal venous blood, Day 1, individual animals Tox 1-4, read-out: Portal Venous Blood BTB-Concentration)?
Answer: The concentration at 1 day was 0 ng/mL.

Question: What about the concentration at 1 day ([1]; portal venous blood, pig portal venous blood, Day 1, mean of animals, read-out: Portal Venous Blood BTB-Concentration, Mean) of the same compound?
Answer: Its concentration at 1 day is 0 ng/mL.

Question: And the concentration at 2 day ([1]; portal venous blood, pig portal venous blood, Day 2, individual animals Tox 1-4, read-out: Portal Venous Blood BTB-Concentration)?
Answer: Its concentration at 2 day is 0 ng/mL.

Question: And the concentration at 2 day ([1]; portal venous blood, pig portal venous blood, Day 2, mean of animals, read-out: Portal Venous Blood BTB-Concentration, Mean)?
Answer: The concentration at 2 day was 0 ng/mL.

Question: What about the concentration at 0 min ([1]; portal venous blood, pig portal venous blood, Min 0 (baseline before indicator application), individual animals Tox 1-4, read-out: Portal Venous Blood BTB-Concentration) of the same compound?
Answer: Its concentration at 0 min is 0 ng/mL.

Question: What about the concentration at 0 min ([1]; portal venous blood, pig portal venous blood, Min 0 (baseline before indicator application), mean of animals, read-out: Portal Venous Blood BTB-Concentration, Mean) of the same compound?
Answer: Its concentration at 0 min is 0 ng/mL.

Question: And the concentration at 1 min ([1]; portal venous blood, pig portal venous blood, Min 1, individual animals Tox 1-4, read-out: Portal Venous Blood BTB-Concentration)?
Answer: The concentration at 1 min was 0 ng/mL.

Question: What about the concentration at 1 min ([1]; portal venous blood, pig portal venous blood, Min 1, mean of animals, read-out: Portal Venous Blood BTB-Concentration, Mean) of the same compound?
Answer: Its concentration at 1 min is 0 ng/mL.

Question: And the concentration at 5 min [1, 4]?
Answer: Its concentration at 5 min is 0.51 ng/mL.

Question: What about the concentration at 30 min [1, 4] of the same compound?
Answer: Its concentration at 30 min is 0.53 ng/mL.

Question: What about the concentration at 60 min ([1]; portal venous blood, pig portal venous blood, Min 60, individual animals Tox 1-4, read-out: Portal Venous Blood BTB-Concentration) of the same compound?
Answer: The concentration at 60 min was 0 ng/mL.

Question: What about the concentration at 60 min ([1]; portal venous blood, pig portal venous blood, Min 60, mean of animals, read-out: Portal Venous Blood BTB-Concentration, Mean) of the same compound?
Answer: Its concentration at 60 min is 0 ng/mL.

Question: And the concentration at 120 min ([1]; portal venous blood, pig portal venous blood, Min 120, individual animals Tox 1-4, read-out: Portal Venous Blood BTB-Concentration)?
Answer: Its concentration at 120 min is 0 ng/mL.

Question: And the concentration at 120 min ([1]; portal venous blood, pig portal venous blood, Min 120, mean of animals, read-out: Portal Venous Blood BTB-Concentration, Mean)?
Answer: Its concentration at 120 min is 0 ng/mL.

Question: What about the “BTB in portal venous blood” value ([1]; pigs, 5 and 30 minutes after application, remaining pigs and timepoints no BTB detected) of the same compound?
Answer: The value was “small amounts of BTB were found only in one pig”.

Question: What about the “cytotoxicity (defined as cell viability less than 70%)” value (pancreatic target cells; 5.5 mg/ml of BTB) of the same compound?
Answer: The value was “slight toxicity”.

Question: What about the “cytotoxicity (defined as cell viability less than 70%)” value (pancreatic target cells; 0.5-1.5 mg/ml of BTB) of the same compound?
Answer: The value was “No cytotoxicity”.

Question: What about the pKa [2] of the same compound?
Answer: The pKa was 7.0.
